Test results reported in patent publication US12427346B2, “P62 ligand compound, and composition for preventing, ameliorating or treating proteinopathies comprising the same” (AUTOTAC INC., priority 2018, dated 2025).
Structures can show the parent of a compound that is named as a salt.

How the values were obtained:
LC3 [1] = assay: Autophagy activity of control compounds by immunoblotting (Experimental Example 4); format: cell-based, human; conditions: different concentrations and different times; immunoblot, FIG. 5
Description: In order to investigate the autophagy activity efficacy of control compounds, immunoblotting was performed in the same manner as in Experimental Example 2 by using LC3 as a marker. As the control compounds, compounds having the following structure were used.

p62 protein = molecular target: T1, p62 protein (Homo sapiens, UniProt Q13501); assay: Oligomerization activity of p62 protein by immunoblotting (Experimental Example 1); format: cell-based; conditions: HEK293 cell lysate treated with test compounds at room temperature for 2 hours; immunoblot, FIG. 2
T1 construct: endogenous in cells; host or cells: HEK293 (lysate treated with compounds)
T1 sequence (Q13501 whole entry): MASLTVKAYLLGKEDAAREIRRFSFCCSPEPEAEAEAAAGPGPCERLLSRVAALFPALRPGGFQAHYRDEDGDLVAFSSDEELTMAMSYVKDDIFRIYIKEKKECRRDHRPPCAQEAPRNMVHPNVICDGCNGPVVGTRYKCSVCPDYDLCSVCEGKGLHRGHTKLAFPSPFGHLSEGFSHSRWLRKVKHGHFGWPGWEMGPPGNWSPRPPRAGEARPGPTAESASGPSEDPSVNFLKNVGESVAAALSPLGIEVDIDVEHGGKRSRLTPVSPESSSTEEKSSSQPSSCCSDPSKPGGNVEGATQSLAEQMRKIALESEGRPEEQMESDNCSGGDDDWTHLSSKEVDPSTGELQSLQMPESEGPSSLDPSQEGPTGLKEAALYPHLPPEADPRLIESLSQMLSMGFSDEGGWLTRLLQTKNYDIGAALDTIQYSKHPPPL
Text: In order to evaluate the p62 protein oligomerization activity efficacy by the compounds (Examples 1-25), HEK293 cell line, which is human embryonic kidney-derived cell, was collected. As the representative compounds among the present compounds, the compounds of Examples 1, 2, 3, 5, 6, 7, 8, 9, 12, and 13 (Example 10 (YT-5-1), Example 11 (YT-5-2), Example 12 (YT 5-7), Example 13 (YT 5-8), Example 15 (YT-8-7), Example 16 (YT-8-8), Example 17 (YTK-107), Example 18 ([…]), Example 20 (ATB10041), Example 21 (ATB10042), Example 22 (ATB10043), Example 23 (ATB10044), Example 24 (ATB10045) and Example 25 (ATB10046)) were selected. In order to measure intracellular p62 protein activation and oligomerization according to the treatment with these selected representative compounds, the respective cells were dispensed into a 100 pi dish. The cells were collected after further culturing for 24 hours so that the cells were completely attached to the surface of the plate. 100 ul of lysis buffer (20 mM Tris, pH 7.4), 150 mM NaCl, 1% Triton X-100, 2 mM NaF, 2 mM EDTA, 2 mM beta-glycerophosphate, 5 mM sodium orthovanadate, 1 mM PMSF, leupeptin, aprotinin) were injected into each sample and the cells were lysed. Based on the measured total protein concentration, each sample was treated with test compounds at room temperature for 2 hours, and then a sample buffer was added and allowed to react at 95° C. for 10 minutes. 25 ul was taken from the samples after the reaction, and dispensed into each well of acrylamide gel, and then immunoblotting was performed.

LC3 [2] = assay: Autophagy activity in cultured cells by immunoblotting, treatment time (Experimental Example 3); format: cell-based, human; conditions: HeLa cells; 5 μM for 1, 3, 6, 12, 24, 48 hours or 10 μM for 24 hours; immunoblot, FIG. 4
Description: In order to investigate the autophagy activity efficacy by the compounds (Examples 1-25), immunoblotting was performed in the same manner as in Experimental Example 2 using LC3 as a marker. As for the difference, in order to evaluate the treatment time required for activation and the activity retention time, 5 μM of the representative compounds selected among the present compounds (Example 5 (YTK-1005), Example 6 (YTK-1205), Example 7 (YTK-1305), Example 2 (YTK-2205), Example 3 (YTK-3305), Example 14 (YTK-1108), Example 8 (YTK-105), Example 9 (YTK-205)) were treated for 1, 3, 6, 12, 24, 48 hours. On the other hand, 10 μM of the representative compounds selected among the present compounds (Example 10 (YT 5-1), Example 11 (YT 5-2), Example 16 (YT 8-8), Example 15 (YT 8-7), Example 17 (YTK-107), Example 18 (YTK-207), Example 20 (ATB10041), Example 21 (ATB10042), Example 22 (ATB10043), Example 23 (ATB10044), Example 24 (ATB10045), Example 25 (ATB10046)) were treated for 24 hours.

LC3 [3] = assay: Autophagy activity in cultured cells by immunoblotting, concentration series (Experimental Example 2); format: cell-based, human; conditions: HeLa cells; 1, 2, 5, 10 and 20 μM, 24 hours; immunoblot, FIG. 3
Description: In order to evaluate the autophagy activity efficacy by the compounds (Examples 1-25), HeLa cell line, which is a cell line derived from a cervical cancer patient, was cultured using a DMEM medium containing 10% FBS and 1% streptomycin/penicillin in an incubator with 5% carbon dioxide. As the representative compounds among the present compounds, the compounds of Examples 1, 2, 3, 5, 6, 7, 8, 9, 12 and 13 (Example 5 (YTK-1005), Example 1 (YTK-1105), Example 6 (YTK-1205), Example 7 (YTK-1305), Example 2 (YTK-2205), Example 3 (YTK-3305), Example 8 (YTK-105), Example 9 (YTK-205), Example 14 (YTK-1108), Example 12 (YT 5-7), Example 13 (YT 5-8)), Example 20 (ATB10041), Example 21 (ATB10042), Example 22 (ATB10043), Example 23 (ATB10044), Example 24 (ATB10045), and Example 25 (ATB10046)) were selected. In order to measure autophagy activity according to the treatment with these selected representative compounds, the respective cells were dispensed into 6 well plates. Additional cultures were performed for 24 hours so that the cells were completely attached to the surface of the plate. To find the concentration at which the respective compounds could increase the phenomenon of autophagy, the test compounds were diluted at 1, 2, 5, 10 and 20 μM and treated. After treatment with the respective compounds, the cells were cultured again in a cell incubator for 24 hours, and then the cells were collected. To extract proteins from the collected cells, 100 ul of lysis buffer (20 mM Tris (pH 7.4), 150 mM NaCl, 1% Triton X-100, 2 mM NaF, 2 mM EDTA, 2 mM beta-glycerophosphate, 5 mM sodium orthovanadate, 1 mM PMSF, leupeptin, aprotinin) was injected into each sample, and cells were lysed. Based on the measured total protein concentration, a sample buffer was added to each sample and allowed to react at 100° C. for 5 minutes. 5 ul was taken from the samples after the reaction, and dispensed into each well of acrylamide gel, and then immunoblotting was performed.

Oc1ccc(OCc2ccccc2)c(OCCCCc2ccccc2)c1 [Example 1402, 4-(benzyloxy)-3-(4-phenylbutoxy)phenol]
autophagy activity (level of LC3) of control compounds (LC3 [1]): do not increase autophagy activity

Oc1ccc(OCCCCc2ccccc2)c(OCCCCc2ccccc2)c1 [Example 4402, 3,4-bis(4-phenylbutoxy)phenol]
autophagy activity (level of LC3) of control compounds (LC3 [1]): do not increase autophagy activity

NC(=O)CNCc1ccc(OCc2ccccc2)c(OCc2ccccc2)c1 [ATB10044, 2-((3,4-bis(benzyloxy)benzyl)amino)acetamide]
p62 protein oligomerization activity (monomer, oligomers and high-molecular aggregates) (p62 protein): increasing the p62 protein oligomerization activity | autophagy activity (level of LC3) (LC3 [2]): increasing the autophagy activity

N[C@H](CNCc1ccc(OCc2ccccc2)c(OCc2ccccc2)c1)C(=O)O [ATB10043, (R)-2-amino-3-((3,4-bis(benzyloxy)benzyl)amino)propanoic acid]
p62 protein oligomerization activity (monomer, oligomers and high-molecular aggregates) (p62 protein): increasing the p62 protein oligomerization activity | autophagy activity (level of LC3) (LC3 [2]): increasing the autophagy activity

OCCNCc1cc(Cl)c(OCc2ccccc2)c(OCc2ccccc2)c1 [ATB10046, 2-((3,4-bis(benzyloxy)-5-chlorobenzyl)amino)ethan-1-ol]
p62 protein oligomerization activity (monomer, oligomers and high-molecular aggregates) (p62 protein): increasing the p62 protein oligomerization activity | autophagy activity (level of LC3) (LC3 [2]): increasing the autophagy activity

O=C(CO)NCc1ccc(OCc2ccccc2)c(OCc2ccccc2)c1 [ATB10042, N-(3,4-bis(benzyloxy)benzyl)-2-hydroxyacetamide]
p62 protein oligomerization activity (monomer, oligomers and high-molecular aggregates) (p62 protein): increasing the p62 protein oligomerization activity | autophagy activity (level of LC3) (LC3 [2]): increasing the autophagy activity

OCCNCc1ccc(OCc2ccccc2)c(OCCCc2ccccc2)c1 [YTK-HCl-1305, 2-((4-(benzyloxy)-3-(3-phenylpropoxy)benzyl)amino)ethan-1-ol]
autophagy activity (level of LC3) (LC3 [2]): increasing the autophagy activity

O=Cc1ccc(OCc2ccccc2)c(OCCCc2ccccc2)c1 [Example 1301, 4-(benzyloxy)-3-(3-phenylpropoxy)benzaldehyde]
autophagy activity (level of LC3) of control compounds (LC3 [1]): do not increase autophagy activity

O=Cc1ccc(OCc2ccccc2)c(OCCCCc2ccccc2)c1 [Example 1401, 4-(benzyloxy)-3-(4-phenylbutoxy)benzaldehyde]
autophagy activity (level of LC3) of control compounds (LC3 [1]): do not increase autophagy activity

OCCNCc1ccc(OCc2ccccc2)c(OCCc2ccccc2)c1 [YTK-HCl-1205, 2-((4-(benzyloxy)-3-phenethoxybenzyl)amino)ethan-1-ol]
autophagy activity (level of LC3) (LC3 [2]): increasing the autophagy activity

OCCCCc1ccc(OCc2ccccc2)c(OCc2ccccc2)c1 [YTK-1105-1, 4-(3,4-bis(benzyloxy)phenyl)butan-1-ol]
autophagy activity (level of LC3) of control compounds (LC3 [1]): do not increase autophagy activity

Oc1ccc(OCc2ccccc2)c(OCc2ccccc2)c1 [Example 1102, 3,4-bis(benzyloxy)phenol]
autophagy activity (level of LC3) of control compounds (LC3 [1]): do not increase autophagy activity

O=Cc1ccc(OCc2ccccc2)c(OCCc2ccccc2)c1 [Example 1201, 4-(benzyloxy)-3-phenethoxybenzaldehyde]
autophagy activity (level of LC3) of control compounds (LC3 [1]): do not increase autophagy activity

OCCNCCNCc1ccc(OCc2ccccc2)c(OCc2ccccc2)c1 [YTK-1108, 2-((2-((3,4-bis(benzyloxy)benzyl)amino)ethyl)amino)ethan-1-ol]
autophagy activity (level of LC3) (LC3 [3]): increasing the autophagy activity

O=Cc1ccc(OCCc2ccccc2)c(OCCc2ccccc2)c1 [Example 2201, 3,4-diphenethoxybenzaldehyde]
autophagy activity (level of LC3) of control compounds (LC3 [1]): do not increase autophagy activity

OCCNCc1ccc(OCCCc2ccccc2)c(OCCCc2ccccc2)c1 [YTK-HCl-3305, 2-((3,4-bis(3-phenylpropoxy)benzyl)amino)ethan-1-ol]
autophagy activity (level of LC3) (LC3 [2]): increasing the autophagy activity

O=C(NCCO)NCc1ccc(OCc2ccccc2)c(OCc2ccccc2)c1 [ATB10041, 1-(3,4-bis(benzyloxy)benzyl)-3-(2-hydroxyethyl)urea]
p62 protein oligomerization activity (monomer, oligomers and high-molecular aggregates) (p62 protein): increasing the p62 protein oligomerization activity | autophagy activity (level of LC3) (LC3 [2]): increasing the autophagy activity

Oc1ccc(OCc2ccccc2)c(OCCc2ccccc2)c1 [Example 1202, 4-(benzyloxy)-3-phenethoxyphenol]
autophagy activity (level of LC3) of control compounds (LC3 [1]): do not increase autophagy activity

OCCNCCNCc1ccc(OCc2ccccc2)c(OCc2ccccc2)c1 [YTK-HCl-1108, 2-((2-((3,4-bis(benzyloxy)benzyl)amino)ethyl)amino)ethan-1-ol]
autophagy activity (level of LC3) (LC3 [2]): increasing the autophagy activity

COc1cc(CNCCO)cc(OCc2ccccc2)c1OCc1ccccc1 [ATB10045, 2-((3,4-bis(benzyloxy)-5-methoxybenzyl)amino)ethan-1-ol]
p62 protein oligomerization activity (monomer, oligomers and high-molecular aggregates) (p62 protein): increasing the p62 protein oligomerization activity | autophagy activity (level of LC3) (LC3 [2]): increasing the autophagy activity

c1ccc(COc2ccc(OC[C@H]3CO3)cc2OCc2ccccc2)cc1 [Example 1103, (R)-2-((3,4-bis(benzyloxy)phenoxy)methyl)oxirane]
autophagy activity (level of LC3) of control compounds (LC3 [1]): do not increase autophagy activity

Oc1ccc(OCCc2ccccc2)c(OCCc2ccccc2)c1 [Example 2202, 3,4-diphenethoxyphenol]
autophagy activity (level of LC3) of control compounds (LC3 [1]): do not increase autophagy activity

c1ccc(CCOc2cc(OC[C@H]3CO3)ccc2OCc2ccccc2)cc1 [Example 1203, (R)-2-((4-(benzyloxy)-3-phenethoxyphenoxy)methyl)oxirane]
autophagy activity (level of LC3) of control compounds (LC3 [1]): do not increase autophagy activity

O=Cc1ccc(OCc2ccccc2)c(OCc2ccccc2)c1 [Example 1101, 3,4-bis(benzyloxy)benzaldehyde]
autophagy activity (level of LC3) of control compounds (LC3 [1]): do not increase autophagy activity

Oc1ccc(OCc2ccccc2)c(OCCCc2ccccc2)c1 [Example 1302, 4-(benzyloxy)-3-(3-phenylpropoxy)phenol]
autophagy activity (level of LC3) of control compounds (LC3 [1]): do not increase autophagy activity

OCCNCc1ccc(OCCc2ccccc2)c(OCCc2ccccc2)c1 [YTK-HCl-2205, 2-((3,4-diphenethoxybenzyl)amino)ethan-1-ol]
autophagy activity (level of LC3) (LC3 [2]): increasing the autophagy activity
